# The source made the active and inactive calls. The rule behind the calls is not given here.
# System: VEEV TC-83 virus titer reduction in cells
# Test: VEEV TC-83 titer reduction, cell-based, secondary screen, TC-83 strain, set 4 (AID 651578)
# Conditions: at 5 µM; active compounds read low
row,Structure (SMILES),log virus titer change
1,CCN1CCN(Cc2nc3ccc([N+](=O)[O-])cc3c(=O)n2-c2ccccc2F)CC1,-3.36
2,COc1ccc(-n2c(CN3CCNCC3)nc3ccc([N+](=O)[O-])cc3c2=O)cc1,-7.41
3,COc1cccc(-n2c(CN3CCNCC3)nc3ccc([N+](=O)[O-])cc3c2=O)c1,-0.354 (inactive)
4,O=c1c2cc([N+](=O)[O-])ccc2nc(CN2CCNCC2)n1-c1ccsc1,-0.997 (inactive)
